Data reported in US7524964B2, “Tetrahydrothiopyrano pyrazole cannabinoid modulators” (Janssen Pharmaceutica NV, priority 2005, dated 2009).
pIC50: −log10 of the molar value. Read-outs that look alike come from different tables or passages of the source.

What was measured:
[1] = biological target: T1, human CB-2 receptor (Homo sapiens, UniProt P34972); test: Binding assay, cannabinoid CB2 receptor ([3H]-CP-55,940 displacement); settings: read-out: CB2 binding percent inhibition; for inhibition at 1 µM: test concentration 1 μM (superscript b)
T1 construct: expressed in transfected cells; host or cells: SK-N-MC cells, pcDNA3 CB-2 (human), semi-purified membranes
Method in brief: (§1)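 Membranes from SK-N-MC cells stably expressing human CB-1 or CB-2 were incubated 90 min at 30° C with 0.2 nM [3H]-CP-55,940 in pH 7.5 Tris buffer with fatty-acid-free BSA; 10 uM WIN 55,212 defined non-specific binding. Filter-bound counts gave IC50 by linear regression, or percent inhibition at 0.2, 1 or 10 μM.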

[2] = biological target: human CB1 receptor (Homo sapiens, UniProt P21554); test: Binding assay, cannabinoid CB1 receptor ([3H]-CP-55,940 displacement); design: expressed in transfected cells; host or cells: SK-N-MC cells, pcDNA3 CB-1 (human), semi-purified membranes; settings: for inhibition at 0.2 µM: test concentration 0.2 μM (superscript a); for inhibition at 1 µM: test concentration 1 μM (superscript b)
Method in brief: as §1

[3] = test concentration 0.2 μM (superscript a)
[4] = read-out: CB1 binding percent inhibition

T1 sequence (P34972 whole entry): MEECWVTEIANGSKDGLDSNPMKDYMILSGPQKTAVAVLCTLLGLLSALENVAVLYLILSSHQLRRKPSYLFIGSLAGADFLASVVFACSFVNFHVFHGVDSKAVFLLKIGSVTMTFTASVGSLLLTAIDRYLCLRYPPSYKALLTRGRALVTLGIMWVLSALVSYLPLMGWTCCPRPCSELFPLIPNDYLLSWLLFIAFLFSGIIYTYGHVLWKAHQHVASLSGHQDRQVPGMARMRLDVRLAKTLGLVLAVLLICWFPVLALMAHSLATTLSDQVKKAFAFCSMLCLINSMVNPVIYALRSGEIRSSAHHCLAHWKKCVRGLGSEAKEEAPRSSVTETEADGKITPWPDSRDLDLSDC
Chain of human CB1 receptor (P21554 whole entry): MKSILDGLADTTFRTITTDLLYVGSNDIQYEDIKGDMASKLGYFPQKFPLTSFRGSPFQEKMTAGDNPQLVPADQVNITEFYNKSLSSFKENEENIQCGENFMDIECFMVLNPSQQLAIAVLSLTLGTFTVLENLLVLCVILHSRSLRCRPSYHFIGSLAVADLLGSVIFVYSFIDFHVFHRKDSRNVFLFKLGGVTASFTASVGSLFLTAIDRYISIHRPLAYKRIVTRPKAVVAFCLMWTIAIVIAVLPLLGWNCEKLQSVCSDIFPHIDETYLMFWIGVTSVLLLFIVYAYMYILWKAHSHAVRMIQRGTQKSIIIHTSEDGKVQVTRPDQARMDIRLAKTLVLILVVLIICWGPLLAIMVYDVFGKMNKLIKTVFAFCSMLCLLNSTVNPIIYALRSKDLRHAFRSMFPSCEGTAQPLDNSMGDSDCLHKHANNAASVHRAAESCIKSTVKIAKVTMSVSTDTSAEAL

O=C(NN1CC2CCCC2C1)c1c2c(nn1-c1ccc(Cl)cc1Cl)/C(=C/c1ccc(F)cc1)CSC2 (stereo not drawn) [Cpd 92, (7Z)-2-(2,4-dichloro-phenyl)-7-(4-fluoro-benzylidene)-2,4,6,7-tetrahydro-thiopyrano[4,3-c]pyrazole-3-carboxylic acid (hexahydro-cyclopenta[c]pyrrol-2-yl)-amide]
inhibition at 0.2 µM [1, 3]: 8% | inhibition at 0.2 µM [2, 4]: 47%

O=C(NN1CCCCC1)c1c2c(nn1-c1ccc(Cl)cc1Cl)/C(=C/c1ccc(F)cc1)CSC2 [Cpd 88, (7Z)-2-(2,4-dichloro-phenyl)-7-(4-fluoro-benzylidene)-2,4,6,7-tetrahydro-thiopyrano[4,3-c]pyrazole-3-carboxylic acid piperidin-1-ylamide]
inhibition at 0.2 µM [1, 3]: 9% | inhibition at 0.2 µM [2, 4]: 46%

NC(=O)c1nn(-c2ccc(Cl)cc2Cl)c2c1CS(=O)(=O)C/C2=C\c1ccc(F)cc1 [Cpd 71, (7Z)-1-(2,4-dichloro-phenyl)-7-(4-fluoro-benzylidene)-5,5-dioxo-4,5,6,7-tetrahydro-1H-5λ^6-thiopyrano[4,3-c]pyrazole-3-carboxylic acid amide]
inhibition at 0.2 µM [1, 3]: 13% | inhibition at 0.2 µM [2, 4]: 18%

C[C@@H](NS(=O)(=O)/C=C/c1nn(Cc2ccccc2)c2c1CS(=O)(=O)CC2)C1CCCCC1 [Cpd 14, (E)-2-(1-benzyl-5,5-dioxo-4,5,6,7-tetrahydro-1H-5λ^6-thiopyrano[4,3-c]pyrazol-3-yl)-ethenesulfonic acid [(1R)-1-cyclohexyl-ethyl]-amide]
inhibition at 1 µM [1]: 0% | inhibition at 1 µM [2, 4]: 0%

O=C(NNc1ccc(Cl)cc1Cl)c1nn(-c2ccc(Cl)cc2Cl)c2c1CS(=O)(=O)C/C2=C\c1ccc(F)cc1 [Cpd 53, (7Z)-1-(2,4-dichloro-phenyl)-7-(4-fluoro-benzylidene)-5,5-dioxo-4,5,6,7-tetrahydro-1H-5λ^6-thiopyrano[4,3-c]pyrazole-3-carboxylic acid N′-(2,4-dichloro-phenyl)-hydrazide]
inhibition at 0.2 µM [1, 3]: 30% | inhibition at 0.2 µM [2, 4]: 55%

C[C@@H](NC(=O)c1c2c(nn1-c1ccc(Cl)cc1Cl)/C(=C/c1ccc(F)cc1)CS(=O)(=O)C2)C1CCCCC1 [Cpd 84, (7Z)-2-(2,4-dichloro-phenyl)-7-(4-fluoro-benzylidene)-5,5-dioxo-4,5,6,7-tetrahydro-2H-5λ^6-thiopyrano[4,3-c]pyrazole-3-carboxylic acid [(1R)-1-cyclohexyl-ethyl]-amide]
inhibition at 0.2 µM [1, 3]: 17% | pIC50 [2]: 8.70

O=C(NN1CCCCC1)c1nn(-c2ccc(Cl)cc2Cl)c2c1C[S+]([O-])C/C2=C\c1ccc(F)cc1 (stereo not drawn) [Cpd 79, (7Z)-1-(2,4-dichloro-phenyl)-7-(4-fluoro-benzylidene)-5-oxo-4,5,6,7-tetrahydro-1H-5λ^4-thiopyrano[4,3-c]pyrazole-3-carboxylic acid piperidin-1-ylamide]
inhibition at 0.2 µM [1, 3]: 10% | pIC50 [2]: 6.80

C[C@@H](NS(=O)(=O)/C=C/c1nn(Cc2ccccc2)c2c1CS(=O)(=O)CC2)c1ccccc1 [Cpd 9, (E)-2-(1-benzyl-5,5-dioxo-4,5,6,7-tetrahydro-1H-5λ^6-thiopyrano[4-3-c]pyrazol-3-yl)-ethenesulfonic acid [(1R)-1-phenyl-ethyl]-amide]
inhibition at 1 µM [1]: 6% | inhibition at 1 µM [2, 4]: 6%

C[C@H](NC(=O)c1c2c(nn1-c1ccc(Cl)cc1Cl)/C(=C/c1ccc(F)cc1)CS(=O)(=O)C2)C1CCCCC1 [Cpd 85, (7Z)-2-(2,4-dichloro-phenyl)-7-(4-fluoro-benzylidene)-5,5-dioxo-4,5,6,7-tetrahydro-2H-5λ^6-thiopyrano[4,3-c]pyrazole-3-carboxylic acid [(1S)-1-cyclohexyl-ethyl]-amide]
inhibition at 0.2 µM [1, 3]: 20% | pIC50 [2]: 7.46

C[C@H](NS(=O)(=O)/C=C/c1c2c(nn1Cc1ccccc1)CCSC2)c1ccccc1 [Cpd 5, (E)-2-(2-benzyl-2,4,6,7-tetrahydro-thiopyrano[4,3-c]pyrazol-3-yl)-ethenesulfonic acid [(1S)-1-phenyl-ethyl]-amide]
inhibition at 1 µM [1]: 9% | inhibition at 1 µM [2, 4]: 9%

O=C(NN1CCCCC1)c1nn(-c2ccc(Cl)cc2Cl)c2c1CS(=O)(=O)C/C2=C\c1ccc(F)cc1 [Cpd 81, (7Z)-1-(2,4-dichloro-phenyl)-7-(4-fluoro-benzylidene)-5,5-dioxo-4,5,6,7-tetrahydro-1H-5λ^6-thiopyrano[4,3-c]pyrazole-3-carboxylic acid piperidin-1-ylamide]
inhibition at 0.2 µM [1, 3]: 24% | pIC50 [2]: 7.49

O=C(c1nn(-c2ccc(Cl)cc2Cl)c2c1CSC/C2=C\c1ccc(F)cc1)N1CCCCC1 [Cpd 55, (7Z)-[1-(2,4-dichloro-phenyl)-7-(4-fluoro-benzylidene)-1,4,6,7-tetrahydro-thiopyrano[4,3-c]pyrazol-3-yl]-piperidin-1-yl-methanone]
inhibition at 0.2 µM [1, 3]: 10% | inhibition at 0.2 µM [2, 4]: 52%

C[C@@H](NC(=O)c1nn(-c2ccc(Cl)cc2Cl)c2c1CS(=O)(=O)C/C2=C\c1ccc(F)cc1)c1ccccn1 [Cpd 124, (7Z)-1-(2,4-dichloro-phenyl)-7-(4-fluoro-benzylidene)-5,5-dioxo-4,5,6,7-tetrahydro-1H-5λ^6-thiopyrano[4,3-c]pyrazole-3-carboxylic acid [(1R)-1-(pyridin-2-yl)-ethyl]-amide]
inhibition at 0.2 µM [1, 3]: 12% | pIC50 [2]: 8.30

O=S(=O)(/C=C/c1nn(-c2ccc(F)cc2F)c2c1CSCC2Cc1cccc(F)c1)NN1CCOCC1 (stereo not drawn) [Cpd 41, (E)-2-[1-(2,4-difluoro-phenyl)-7-(3-fluoro-benzyl)-1,4,6,7-tetrahydro-thiopyrano[4,3-c]pyrazol-3-yl]-ethenesulfonic acid morpholin-4-ylamide]
inhibition at 0.2 µM [1, 3]: 8% | inhibition at 0.2 µM [2, 4]: 9%

C[C@H](NS(=O)(=O)/C=C/c1c2c(nn1Cc1ccccc1)CCS(=O)(=O)C2)c1ccccc1 [Cpd 10, (E)-2-(2-benzyl-5,5-dioxo-4,5,6,7-tetrahydro-2H-5λ^6-thiopyrano[4,3-c]pyrazol-3-yl)-ethenesulfonic acid [(1S)-1-phenyl-ethyl]-amide]
inhibition at 1 µM [1]: 36% | inhibition at 1 µM [2, 4]: 0%

O=C(NN1CCCCC1)c1nn(-c2ccc(Cl)cc2Cl)c2c1CSC/C2=C\c1ccc(F)cc1 [Cpd 54, (7Z)-1-(2,4-dichloro-phenyl)-7-(4-fluoro-benzylidene)-1,4,6,7-tetrahydro-thiopyrano[4,3-c]pyrazole-3-carboxylic acid piperidin-1-ylamide]
inhibition at 0.2 µM [1, 3]: 25% | pIC50 [2]: 7.47

C[C@@H](NC(=O)c1nn(-c2ccc(Cl)cc2Cl)c2c1CSC/C2=C\c1ccc(Br)cc1)c1ccccc1 [Cpd 129, (7Z)-(4-Bromo-benzylidene)-1-(2,4-dichloro-phenyl)-1,4,6,7-tetrahydro-thiopyrano[4,3-c]pyrazole-3-carboxylic acid [(1R)-1-phenyl-ethyl]-amide]
inhibition at 0.2 µM [1]: 26% | pIC50 [2]: 8.22

C[C@@H](NC(=O)/C=C/c1nn(Cc2ccccc2)c2c1CS(=O)(=O)CC2)c1ccccc1 [Cpd 37, (2E)-3-(1-benzyl-5,5-dioxo-4,5,6,7-tetrahydro-1H-5λ^6-thiopyrano[4,3-c]pyrazol-3-yl)-N-[(1R)-1-phenyl-ethyl]-acrylamide]
inhibition at 10 µM ([1]; test concentration 10 μM (superscript c)): 7% | inhibition at 10 µM ([2]; test concentration 10 μM (superscript c), read-out: CB1 binding percent inhibition): 11%

O=S1(=O)Cc2c(/C=C/S(=O)(=O)NN3CCOCC3)nn(-c3ccc(F)cc3F)c2C(Cc2cccc(F)c2)C1 (stereo not drawn) [Cpd 44, (E)-2-[1-(2,4-difluoro-phenyl)-7-(3-fluoro-benzyl)-5,5-dioxo-4,5,6,7-tetrahydro-1H-5λ^6-thiopyrano[4,3-c]pyrazol-3-yl]-ethenesulfonic acid morpholin-4-ylamide]
inhibition at 0.2 µM [1, 3]: 9% | inhibition at 0.2 µM [2, 4]: 3%

C[C@H](NC(=O)c1nn(-c2ccc(Cl)cc2Cl)c2c1CSC/C2=C\c1ccc(F)cc1)c1ccccc1 [Cpd 62, (7Z)-1-(2,4-dichloro-phenyl)-7-(4-fluoro-benzylidene)-1,4,6,7-tetrahydro-thiopyrano[4,3-c]pyrazole-3-carboxylic acid [(1S)-1-phenyl-ethyl]-amide]
inhibition at 0.2 µM [1, 3]: 17% | pIC50 [2]: 7.32

C[C@@H](NS(=O)(=O)/C=C/c1nn(-c2ccc(F)cc2F)c2c1CS(=O)(=O)CC2Cc1cccc(F)c1)C1CCCCC1 (stereo partly drawn) [Cpd 43, (E)-2-[1-(2,4-difluoro-phenyl)-7-(3-fluoro-benzyl)-5,5-dioxo-4,5,6,7-tetrahydro-1H-5λ^6-thiopyrano[4,3-c]pyrazol-3-yl]-ethenesulfonic acid [(1R)-1-cyclohexyl-ethyl]-amide]
inhibition at 0.2 µM [1, 3]: 11% | inhibition at 0.2 µM [2, 4]: 41%
